From patent US11117947B2, “Double-acylated GLP-1 derivatives” (Novo Nordisk A/S, priority 2011, dated 2021)
Numbered stars: 1 amine (or outer) side, 2 acyl side, 3 side chain; on linkers, the order of the positions; unused ones are H or OH. Side chains are listed from the residue outwards. Peptide text beside a SMILES is read from it. * marks the point of attachment. γGlu = O=C(O)[C@H](CCC(=O)[*:2])N[*:1]; C14 diacid = O=C(O)CCCCCCCCCCCCC(=O)*; AEEA = NCCOCCOCC(=O)O

Biological target: T1, human GLP-1 receptor (Homo sapiens, UniProt P43220)
T1 construct: expressed in transfected cells; membranes
T1 sequence (P43220 24-463): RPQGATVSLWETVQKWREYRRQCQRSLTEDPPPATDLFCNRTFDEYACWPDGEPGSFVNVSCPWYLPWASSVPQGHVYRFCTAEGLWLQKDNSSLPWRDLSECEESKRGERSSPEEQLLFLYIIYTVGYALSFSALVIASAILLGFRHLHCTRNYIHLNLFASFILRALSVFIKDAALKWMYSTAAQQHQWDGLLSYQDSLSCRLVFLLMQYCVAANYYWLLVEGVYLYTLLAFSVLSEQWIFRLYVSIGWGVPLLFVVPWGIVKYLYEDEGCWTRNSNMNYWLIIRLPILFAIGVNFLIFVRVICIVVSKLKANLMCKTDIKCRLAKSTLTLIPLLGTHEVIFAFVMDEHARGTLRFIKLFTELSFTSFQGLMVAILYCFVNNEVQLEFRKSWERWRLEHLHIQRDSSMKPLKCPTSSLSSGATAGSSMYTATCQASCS
Experiment: GLP-1 receptor binding: displacement of 125I-GLP-1 (SPA) at low and high albumin
Settings: high albumin, 2.0% HSA; read-out: IC50/nM (high HSA)
Procedure: The purpose of this experiment is to investigate the binding to the GLP-1 receptor of the GLP-1 derivatives, and how the binding is potentially influenced by the presence of albumin. This is done in an in vitro experiment as described below.
In order to test the binding of the derivatives to albumin, the assay was performed with a low concentration of albumin (0.001%—corresponding to the residual amount thereof in the tracer), as well as with a high concentration of albumin (2.0% added). A shift in the binding affinity, IC50, is an indication that the peptide in question binds to albumin, and thereby a prediction of a potential protracted pharmacokinetic profile of the peptide in question in animal models.
Species (in vitro): Hamster
Biological End Point: Receptor Binding
A stable transfected cell line and a high expressing clone were selected for screening. The cells were grown at 5% CO2 in DMEM, 10% FCS, 1% Pen/Strep (Penicillin/Streptomycin) and 1.0 mg/ml of the selection marker G418.
The cells (approx. 80% confluence) were washed twice in PBS and harvested with Versene (aqueous solution of the tetrasodium salt of ethylenediaminetetraacetic acid), following which they were separated by centrifugation at 1000 rpm for 5 min. The cells/cell pellet must be kept on ice to the extent possible in the subsequent steps. The cell pellet was homogenised with Ultrathurrax for 20-30 seconds in a suitable amount of Buffer 1 (depending on the amount of cells, but e.g. 10 ml). The homogenate was centrifuged at 20000 rpm for 15 minutes. The pellet was resuspended (homogenised) in 10 ml Buffer 2 and re-centrifuged. This step was repeated once more. The resulting pellet was resuspended in Buffer 2, and the protein concentration was determined. The membranes were stored at minus 80° C.
Buffer 1: 20 mM Na-HEPES+10 mM EDTA, pH 7.4
Buffer 2: 20 mM Na-HEPES+0.1 mM EDTA, pH 7.4
Test compounds, membranes, SPA-particles and [^125I]-GLP-1(7-36)NH2 were diluted in assay buffer. 50 ul (micro liter) HSA (“high albumin” experiment containing 2% HSA), or buffer (“low albumin” experiment containing 0.001% HSA), was added to Optiplate, and 25 ul of test compounds were added. 5-10 ug membrane protein/sample was added (50 ul) corresponding to 0.1-0.2 mg protein/ml (to be preferably optimised for each membrane preparation). SPA-particles (Wheatgerm agglutinin SPA beads, Perkin Elmer, #RPNQ0001) were added in an amount of 0.5 mg/well (50 ul). The incubation was started with [^125I]-GLP-1]-(7-36)NH2 (final concentration 0.06 nM corresponding to 49.880 DPM, 25 ul). The plates were sealed with PlateSealer and incubated for 120 minutes at 30° C. while shaking. The plates were centrifuged (1500 rpm, 10 min) and counted in Topcounter.

IC50 [nM] | SMILES
> 1000 | CC[C@H](C)[C@H](NC(=O)[C@H](Cc1ccccc1)NC(=O)[C@H](CCCCNC(=O)COCCOCCNC(=O)COCCOCCNC(=O)CC[C@H](NC(=O)CCCCCCCCCCCCC(=O)O)C(=O)O)NC(=O)[C@H](CCCNC(=N)N)NC(=O)[C@@H](NC(=O)[C@H](CCCCNC(=O)COCCOCCNC(=O)COCCOCCNC(=O)CC[C@H](NC(=O)CCCCCCCCCCCCC(=O)O)C(=O)O)NC(=O)[C@H](CCC(N)=O)NC(=O)[C@H](CCC(=O)O)NC(=O)[C@H](CCC(=O)O)NC(=O)[C@H](CC(C)C)NC(=O)[C@H](Cc1ccc(O)cc1)NC(=O)[C@H](CO)NC(=O)[C@H](CO)NC(=O)[C@@H](NC(=O)[C@H](CC(=O)O)NC(=O)[C@H](CO)NC(=O)[C@@H](NC(=O)[C@H](Cc1ccccc1)NC(=O)[C@@H](NC(=O)CNC(=O)[C@H](CCC(=O)O)NC(=O)[C@H](C)NC(=O)[C@@H](N)Cc1c[nH]cn1)[C@@H](C)O)[C@@H](C)O)C(C)C)C(C)C)C(=O)N[C@@H](C)C(=O)N[C@@H](Cc1c[nH]c2ccccc12)C(=O)N[C@@H](CC(C)C)C(=O)N[C@H](C(=O)NCC(=O)O)C(C)C [Example 27, N^ε24-[2-[2-[2-[[2-[2-[2-[[(4S)-4-carboxy-4-(13-carboxytridecanoylamino)butanoyl]amino]ethoxy]ethoxy]acetyl]amino]ethoxy]ethoxy]acetyl], N^ε27-[2-[2-[2-[[2-[2-[2-[[(4S)-4-carboxy-4-(13-carboxytridecanoylamino)butanoyl]amino]ethoxy]ethoxy]acetyl]amino]ethoxy]ethoxy]acetyl]-[Glu^22,Lys^24, Val^25, Arg^26, Lys^27,Gly^34]-GLP-1-(7-34)-peptide] (H-HAEGTFTSDVSSYLEEQK([AEEA-AEEA-γGlu-C14 diacid])VRK([AEEA-AEEA-γGlu-C14 diacid])FIAWLVG-OH)
> 1000 | CC[C@H](C)[C@H](NC(=O)[C@H](Cc1ccccc1)NC(=O)[C@H](CCCCNC(=O)CC[C@H](NC(=O)COCCOCCNC(=O)COCCOCCNC(=O)CCCCCCCCCCCCC(=O)O)C(=O)O)NC(=O)[C@H](CCCNC(=N)N)NC(=O)[C@@H](NC(=O)[C@H](CCCCNC(=O)CC[C@H](NC(=O)COCCOCCNC(=O)COCCOCCNC(=O)CCCCCCCCCCCCC(=O)O)C(=O)O)NC(=O)[C@H](CCC(N)=O)NC(=O)[C@H](CCC(=O)O)NC(=O)[C@H](CCC(=O)O)NC(=O)[C@H](CC(C)C)NC(=O)[C@H](Cc1ccc(O)cc1)NC(=O)[C@H](CO)NC(=O)[C@H](CO)NC(=O)[C@@H](NC(=O)[C@H](CC(=O)O)NC(=O)[C@H](CO)NC(=O)[C@@H](NC(=O)[C@H](Cc1ccccc1)NC(=O)[C@@H](NC(=O)CNC(=O)[C@H](CCC(=O)O)NC(=O)[C@H](C)NC(=O)[C@@H](N)Cc1c[nH]cn1)[C@@H](C)O)[C@@H](C)O)C(C)C)C(C)C)C(=O)N[C@@H](C)C(=O)N[C@@H](Cc1c[nH]c2ccccc12)C(=O)N[C@@H](CC(C)C)C(=O)N[C@H](C(=O)NCC(=O)O)C(C)C [Example 30, N^ε24-[(4S)-4-carboxy-4-[[2-[2-[2-[[2-[2-[2-(13-carboxytridecanoylamino)ethoxy]ethoxy]acetyl]amino]ethoxy]ethoxy]acetyl]amino]butanoyl], N^ε27-[(4S)-4-carboxy-4-[[2-[2-[2-[[2-[2-[2-(13-carboxytridecanoylamino)ethoxy]ethoxy]acetyl]amino]ethoxy]ethoxy]acetyl]amino]butanoyl]-[Glu^22,Lys^24, Val^25, Arg^26, Lys^27,Gly^34]-GLP-1-(7-34)-peptide] (H-HAEGTFTSDVSSYLEEQK([γGlu-AEEA-AEEA-C14 diacid])VRK([γGlu-AEEA-AEEA-C14 diacid])FIAWLVG-OH)
